According to ChEMBL document CHEMBL1147332, “Screening of marine invertebrates for the presence of ergosterol-sensitive antifungal compounds” (1993):
Calls of active or inactive are those of the source. The rule behind the calls is not given here.

Tests used:
Candida albicans [1] = test: Antifungal activity against Candida albicans after 16 to 19 hrs by disk diffusion assay; type: functional, organism-based
Candida albicans [2] = test: Antifungal activity against Candida albicans at <= 1 ug after 16 to 19 hrs by disk diffusion assay; type: functional, organism-based
Candida albicans [3] = test: Antifungal activity against Candida albicans after 16 to 19 hrs by disk diffusion assay in presence of 100 ppm ergosterol; type: functional, organism-based
Candida albicans [4] = test: Antifungal activity against Candida albicans at 2 ug after 16 to 19 hrs by disk diffusion assay in presence of 20 ppm ergosterol; type: functional
Candida albicans [5] = test: Antifungal activity against Candida albicans at 1 ug after 16 to 19 hrs by disk diffusion assay in presence of increasing concentration of ergosterol; type: functional, organism-based
Candida albicans [6] = test: Antifungal activity against Candida albicans at 5 ug after 16 to 19 hrs by disk diffusion assay in presence of 120 ppm ergosterol; type: functional

Compound	Activity (Candida albicans [1])	Activity (Candida albicans [2])	also measured
CO[C@H]([C@H](C)/C=C/N(C)C=O)[C@@H](C)C(=O)CC[C@H](C)[C@H](C[C@@H]1OC(=O)C[C@@H](OC(N)=O)C[C@H](C)C[C@H](O)[C@H](C)[C@@H](OC)c2coc(n2)-c2coc(n2)-c2coc(n2)/C=C/C[C@H](OC)[C@H]1C)OC	inactive	Active	–
Clc1ccc(COC(Cn2ccnc2)c2ccc(Cl)cc2Cl)c(Cl)c1 (stereo not drawn)	–	–	Activity (Candida albicans [3]): Active
C[C@@H]1[C@H](O)[C@@H](C)/C=C/C=C/C=C/C=C/C=C/C=C/C=C/[C@H](O[C@@H]2O[C@H](C)[C@@H](O)[C@H](N)[C@@H]2O)C[C@@H]2O[C@](O)(C[C@@H](O)C[C@@H](O)[C@H](O)CC[C@@H](O)C[C@@H](O)CC(=O)O[C@H]1C)C[C@H](O)[C@H]2C(=O)O [AMPHOTERICIN B]	–	–	Activity (Candida albicans [4]): 50%; Activity (Candida albicans [5]): Active
C/C1=C\[C@H](C)C[C@H](C)OC(=O)C[C@H](c2ccc(O)cc2)NC(=O)[C@@H](Cc2c(Br)[nH]c3ccccc23)N(C)C(=O)[C@H](C)NC(=O)[C@@H](C)C1 [JASPAMIDE]	inactive	Active	Activity (Candida albicans [6]): 50%
